In patent US20250387378A1, “METHODS AND COMPOSITIONS FOR PREVENTING SKIN TOXICITIES CAUSED BY BIOLOGICAL TARGETED CANCER DRUGS” (Hadasit Medical Research Services & Development Limited, priority 2019, published 2025):
Entries after “also recorded” stand apart in the source; their conditions may differ. Structures can show the parent of a compound that is named as a salt.

Columns and labels:
HaCaT keratinocytes = assay: percent survival of HaCaT keratinocytes with trametinib plus sn8; type: cell-based, human; details: added to trametinib, FIG. 9B
keratinocytes = assay: percent live keratinocytes after adding sn molecules to erlotinib and gefitinib; type: cell-based; details: added to erlotinib and gefitinib, FIG. 9B
HaCaT cells [1] = assay: annexin-V/PI flow cytometry, erlotinib induced death in HaCaT cells; type: cell-based, human; details: erlotinib alone, 72 hours
Procedure: To test if ATP analogues can protect keratinocyte from erlotinib induced death we treated HaCaT cells with erlotinib alone and with erlotinib+5 uM ATP analogue for 72 hours. Apoptosis and cell death were evaluated by annexin-V and propidium-iodide (PI) labeling, followed by flow cytometry. […] B) bar graph depicting percent dead HaCaT cells with the different treatment conditions.

A431 cells [2] = assay: annexin-V/PI flow cytometry, panitumumab induced death in A431 cells; type: cell-based; details: 72 hours
Procedure: Apoptosis and cell death were evaluated by annexin-V and propidium-iodide (PI) labeling, followed by flow cytometry. The experiments show improved cell viability of A431 cells treated with G-4 and E-3 compounds with panitumumab as compared to panitumumab alone. A) flow cytometry of one representative experiment showing elevation of percentage of live cells from 18% live cells after panitumumab alone verses 40% live cells with panitumumab and G-4 compound and 42% live cells with E-3 compound and panitumumab treatment. B) bar graph depicting percent live A431 cells with the different treatment conditions.

EGFR [3] = molecular target: T1, EGFR (Homo sapiens, UniProt P00533); assay: blocking of panitumumab (vectibix) binding to EGFR; details: FIG. 3
EGFR [4] = molecular target: T1, EGFR; assay: ELISA, blocking of cetuximab binding to EGFR; details: for blocking of cetuximab binding to EGFR (in words): ELISA
[5] = Franz chamber skin penetration; type: in vitro ADME, human; details: FIG. 12
Text: The inventors designed and fabricated solidified polymer micelles composed of linear […] (PEG-PLA) of ˜20 nm, which was previously shown to have stability and ability to penetrate cells efficiently.

HaCaT cells [6] = assay: annexin-V/PI flow cytometry, cetuximab induced cell death in HaCaT cells; type: cell-based, human
Procedure: (§1) The novel approach proposed by the invention is to specifically target and block the effect of the anti-neoplastic biological targeted agents in the skin.
(§2) Apoptosis and cell death were evaluated by annexin-V and propidium-iodide (PI) labeling, followed by flow cytometry.

A431 cells [7] = assay: annexin-V/PI flow cytometry, cetuximab induced cell death in A431 cells; type: cell-based
Procedure: as §2

[8] = system: phosphorylated EGFR receptor; assay: p-EGFR level by flow cytometry, A431 cells treated with EGF and cetuximab; type: cell-based; details: for effect on p-EGFR expression (in words): A431 cells treated with cetuximab, 5 uM compound; for activated levels of p-EGFR: A431 cells, 20 minutes, EGF, cetuximab and 5 uM compound
Procedure: (§3) The level of phosphorylated EGFR receptor was measured in cell lines by flow cytometry.

[9] = system: phosphorylated EGFR receptor; assay: p-EGFR level by flow cytometry, HaCaT cells treated with EGF and cetuximab; type: cell-based, human; details: for effect on p-EGFR expression (in words): HaCaT cells treated with cetuximab, 5 uM compound
Procedure: as §1, §3

[10] = molecular target: recombinant human EGFR (rhEGFR) (Homo sapiens, UniProt P00533); assay: ELISA, inhibition of bispecific EGFRi antibody binding to rhEGFR
Procedure: (§4) The efficacity of SDT-011 efficacy in preventing bispecific EGFRi binding to recombinant human EGFR (rhEGFR) was evaluated. ELISA was used to assess binding inhibition, while MTT assays in HaCaT and A431 cell lines measured the reversal of EGFR inhibition on keratinocyte cell line proliferation, and flow cytometry quantified EGFR expression on the cell surface. Additionally, in silico docking experiments provided insights into SDT-011's mechanism of action in blocking amivantamab, petosemtamab, and izalontamab.

[11] = system: HaCaT and A431 cell lines; assay: MTT proliferation assay with bispecific EGFRi; type: cell-based; details: keratinocyte cell lines
Procedure: as §4

EGFR [12] = molecular target: T1, EGFR; assay: flow cytometry of EGFR expression on the cell surface with bispecific EGFRi; type: cell-based
Procedure: as §4

[13] = panitumumab + compound (0.5 uM and 5 uM)
[14] = G-4 added to cetuximab treatment, 72 hours, one representative experiment
[15] = cetuximab + 0.5 uM and 5 uM G-4, 72 hours

## Nc1ccc(OCc2ccccn2)c(Cl)c1 [sn8]
HaCaT keratinocytes
  percent survival of HaCaT keratinocytes (in words): improved percent survival of HaCaT keratinocytes
keratinocytes
  percent live keratinocytes (in words): improved percent live keratinocytes

## C#Cc1cccc(Nc2ncnc3cc(OCCOC)c(OCCOC)cc23)c1 [erlotinib]
HaCaT cells [1]
  dead cells: 13.5%

## CC(=O)Nc1ccc(F)c(Cl)c1 [sn7]
keratinocytes
  percent live keratinocytes (in words): improved percent live keratinocytes

## Cc1cc(Cl)cc(N)c1N [E3, (2-amino-4-chloro-6-methylphenyl)amine hydrochloride]
A431 cells [2]; [13]
  live cells: 42%
EGFR [3]
  blocking of panitumumab (vectibix) binding to EGFR (in words): block the binding
EGFR [4]; hydrochloride
  blocking of cetuximab binding to EGFR (in words): blocking of cetuximab binding to EGFR; also recorded: dose-dependent manner

## panitumumab: human monoclonal antibody specific to the epidermal growth factor receptor [reference compound]
A431 cells [2]; panitumumab alone
  live cells: 18%

## N#Cc1cc(N)ccc1F [sn6]
keratinocytes
  percent live keratinocytes (in words): improved percent live keratinocytes

## CC(=O)c1sc2nc(-c3cccnc3)cc(C(F)F)c2c1N [G4, 1-[3-amino-4-(difluoromethyl)-6-(3-pyridinyl)thieno[2,3-b]pyridin-2-yl]ethanone]
[5]
  penetration through full human skin (in words): does not penetrate full human skin
HaCaT cells [6]; [14]
  live cells: 64%
HaCaT cells [6]; [15]
  average improvement of viability against cetuximab induced cell death: 30%
A431 cells [7]; [14]
  live cells: 54.5%
A431 cells [7]; [15]
  average improvement of viability against cetuximab induced cell death: more than 50%
A431 cells [2]; [13]
  live cells: 40%
EGFR [3]
  blocking of panitumumab (vectibix) binding to EGFR (in words): block the binding
[8]
  effect on p-EGFR expression (in words): increase p-EGFR expression
  activated levels of p-EGFR: ~30%
EGFR [4]
  blocking of cetuximab binding to EGFR (in words): blocking of cetuximab binding to EGFR; also recorded: dose-dependent manner; also recorded: block cetuximab's binding to EGFR
EGFR [4]; screening plate, FIG. 2A
  blocking of binding of cetuximab to EGFR: 42%
[9]
  effect on p-EGFR expression (in words): increase p-EGFR expression

## Cc1ccc(-c2cc(C(F)(F)F)c3c(N)c(C#N)sc3n2)cc1 [LW11]
[10]; FIG. 17 panel A
  inhibition of amivantamab binding to EGFR (in words): effectively inhibited the binding
[10]; FIG. 17 panel B
  inhibition of petosemtamab binding to EGFR (in words): effectively inhibited the binding
[10]; FIG. 17 panel C
  inhibition of izalontamab binding to EGFR (in words): effectively inhibited the binding
[11]; FIG. 18 panel D
  antiproliferative effects induced by amivantamab (in words): reversal of the antiproliferative effects
[11]; FIG. 18 panel E
  antiproliferative effects induced by petosemtamab (in words): reversal of the antiproliferative effects
[11]; FIG. 18 panel F
  antiproliferative effects induced by izalontamab (in words): reversal of the antiproliferative effects
[8]
  effect on p-EGFR expression (in words): increase p-EGFR expression
  activated levels of p-EGFR: ~30%
EGFR [12]; FIG. 18 panel A
  total EGFR (tEGFR) expression / receptor internalization by amivantamab (in words): stabilizes total EGFR (tEGFR) expression
EGFR [12]; FIG. 18 panel B
  total EGFR (tEGFR) expression / receptor internalization by petosemtamab (in words): stabilizes total EGFR (tEGFR) expression
EGFR [12]; FIG. 18 panel C
  total EGFR (tEGFR) expression / receptor internalization by izalontamab (in words): stabilizes total EGFR (tEGFR) expression
EGFR [4]
  blocking of cetuximab binding to EGFR (in words): dose-dependent manner; also recorded: block cetuximab's binding to EGFR
[9]
  effect on p-EGFR expression (in words): increase p-EGFR expression
[9]; HaCaT cells, 20 minutes, EGF, cetuximab and 5 uM compound
  activated levels of p-EGFR: up to 46%

## O=C(CN1C(=O)c2ccccc2C1=O)Nc1cccc(Cl)c1 [sn9]
keratinocytes
  percent live keratinocytes (in words): improved percent live keratinocytes
